The values below are quoted from earlier work in US20120277693A1, “METHOD AND APPARATUS FOR IMPROVING THE APPEARANCE OF NAILS AFFECTED BY ONYCHOMYCOSIS THROUGH THE TOPICAL APPLICATION OF AN AQUEOUS SOLUTION CONTAINING BORIC ACID AND CAMPHOR OR OTHER TERPENES” (priority 2009, published 2012).

Data set [1] has as its system fungal nail infection. The settings on record: topical lacquer painted daily on infected nails.
For data set [2] the following is noted: in boiling water; believed to be approximately; also printed as 280 g/L or 4.53 mole/L.

For `Cc1cc(C2CCCCC2)n(O)c(=O)c1` [ciclopirox], the “patients in whom the treatment is effective” value in data set [1] is on record as “less than 10%”.

Take `OB(O)O` [boric acid]: in data set [2], the “boric acid concentration, supersaturated” value is “approximately 28%”.
